This experiment relates to Staphylococcus aureus. Description: Antibacterial activity against methicillin-resistant Staphylococcus aureus at 25 ug/mL. The format is functional, organism-based.

Molecules are shown by their SMILES. The source made the active and inactive calls. The rule behind the calls is not given here.

In the case of `C/C=C/C=C/C=C(C)/C=C/C(O)=C1\C(=O)CNC1=O`, the inhibition entry is “Active”.

For the origin of these results see ChEMBL document CHEMBL1150646, “Ravenic acid, a new tetramic acid isolated from a cultured microfungus, Penicillium sp” (J Nat Prod, 2002).
